Test results taken from ChEMBL document CHEMBL5331105, “Newly Synthesized 3-Indolyl Furanoid Inhibits Matrix Metalloproteinase-9 Activity and Prevents Nonsteroidal Anti-inflammatory Drug-Induced Gastric Ulceration” (J Med Chem, 2023).
Calls of active or inactive are those of the source. No cut-off for these calls is given here.

Key:
Mus musculus [1] = experiment: Antiulcer activity in indomethacin-induced Balb/c mouse model of gastric ulcer assessed as mean ulcer index at 12 mg/kg, po pre-administered with compound for 30 mins followed by indomethacin administration and measured after 4 hrs (reference value: 52.5 +/- 1.4); format: functional; conditions: time 4.5 hrs
Mus musculus [2] = experiment: Antiulcer activity in indomethacin-induced Balb/c mouse model of gastric ulcer assessed as inhibition of ulceration at 12 mg/kg, po pre-administered with compound for 30 mins followed by indomethacin administration and measured after 4 hrs relative to control; format: functional; conditions: time 4.5 hrs
Mus musculus [3] = experiment: Antiulcer activity in indomethacin-induced Balb/c mouse model of gastric ulcer assessed as mean ulcer index at 50 mg/kg, po pre-administered with compound for 30 mins followed by indomethacin administration and measured after 4 hrs (reference value: 52.5 +/- 1.4); format: functional; conditions: time 4.5 hrs
Mus musculus [4] = experiment: Antiulcer activity in indomethacin-induced Balb/c mouse model of gastric ulcer assessed as inhibition of ulceration at 50 mg/kg, po pre-administered with compound for 30 mins followed by indomethacin administration and measured after 4 hrs relative to control; format: functional; conditions: time 4.5 hrs
[5] = Tmax in Sprague-Dawley rat at 250 mg/kg, po administered via gavage by HPLC analysis; format: ADME, organism-based; conditions: in vivo
[6] = AUC in Sprague-Dawley rat at 250 mg/kg, po administered via gavage by HPLC analysis; format: ADME, organism-based; design: dose 250 mg/kg, route po; conditions: in vivo
[7] = Toxicity in Balb/c mouse assessed as mortality at 150 to 300 mg/kg, po administered via gavage for 25 days; format: organism-based; conditions: in vivo, 600 h, dose 150-300 mg/kg, time 25 day
[8] = Toxicity in Balb/c mouse assessed as lethargy at 150 to 300 mg/kg, po administered via gavage for 25 days; format: organism-based; conditions: in vivo, 600 h, dose 150-300 mg/kg, time 25 day
[9] = Toxicity in Balb/c mouse assessed as abdominal distension at 150 to 300 mg/kg, po administered via gavage for 25 days; format: organism-based; conditions: in vivo, 600 h, dose 150-300 mg/kg, time 25 day
[10] = Toxicity in Balb/c mouse assessed as fur loss at 150 to 300 mg/kg, po administered via gavage for 25 days; format: organism-based; conditions: in vivo, 600 h, dose 150-300 mg/kg, time 25 day
[11] = Toxicity in Balb/c mouse assessed as hunching at 150 to 300 mg/kg, po administered via gavage for 25 days; format: organism-based; conditions: in vivo, 600 h, dose 150-300 mg/kg, time 25 day
[12] = Toxicity in Balb/c mouse assessed as effect on body weight at 150 to 300 mg/kg, po administered via gavage for 25 days; format: organism-based; conditions: in vivo, 600 h, dose 150-300 mg/kg, time 25 day
[13] = target: T1, Prostaglandin G/H synthase 2 (Homo sapiens, UniProt P35354); experiment: Inhibition of COX2 (unknown origin) preincubated with compound for 5 mins followed by substrate addition and measured after 5 mins by fluorescence spectrophotometer analysis
T1 sequence (P35354 whole entry): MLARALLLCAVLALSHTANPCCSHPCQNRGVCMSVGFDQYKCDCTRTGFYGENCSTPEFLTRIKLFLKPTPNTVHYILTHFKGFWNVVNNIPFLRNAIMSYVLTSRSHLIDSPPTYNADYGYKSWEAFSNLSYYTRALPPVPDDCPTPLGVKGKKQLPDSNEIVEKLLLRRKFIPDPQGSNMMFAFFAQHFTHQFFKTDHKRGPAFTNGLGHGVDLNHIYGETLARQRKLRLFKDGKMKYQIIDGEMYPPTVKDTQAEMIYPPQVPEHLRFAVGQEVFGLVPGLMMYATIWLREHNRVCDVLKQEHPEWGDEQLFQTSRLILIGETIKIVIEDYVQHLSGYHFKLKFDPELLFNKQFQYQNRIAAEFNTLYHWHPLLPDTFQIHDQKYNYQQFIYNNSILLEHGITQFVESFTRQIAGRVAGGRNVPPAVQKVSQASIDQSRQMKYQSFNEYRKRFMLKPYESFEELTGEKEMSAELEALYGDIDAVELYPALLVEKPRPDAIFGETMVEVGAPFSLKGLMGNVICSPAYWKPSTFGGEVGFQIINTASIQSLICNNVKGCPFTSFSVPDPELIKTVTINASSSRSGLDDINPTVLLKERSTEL

[14] = target: 72 kDa type IV collagenase (Homo sapiens) (UniProt P08253); experiment: Inhibition of MMP-2 (unknown origin) upto 500 uM incubated for 3 hrs by SDS-PAGE analysis
Mus musculus [15] = experiment: (§1) Antiulcer activity in indomethacin-induced Balb/c mouse model of gastric ulcer assessed as reduction in gastric tissue injury at 50 mg/kg, po pre-administered with compound for 30 mins followed by indomethacin administration and measured after 4 hrs by H&E staining based analysis; format: functional, organism-based; conditions: time 4.5 hrs
Mus musculus [16] = experiment: as §1, with “prevention of inflammatory cell infiltration” for “reduction in gastric tissue injury”, “analysis relative to control” for “analysis”; format: functional; conditions: time 4.5 hrs
Mus musculus [17] = experiment: Antiulcer activity in indomethacin-induced Balb/c mouse model of gastric ulcer assessed as reduction in mucosal injury at 50 mg/kg, po pre-administered with compound for 30 mins followed by indomethacin administration and measured after 4 hrs by H&E staining based analysis relative to control; format: functional; design: scale not given: the % may be the effect or the level left; conditions: time 4.5 hrs
Mus musculus [18] = experiment: as §1, with “inflammatory cell infiltration” for “reduction in gastric tissue injury”, “analysis (reference value: 147 +/- 5.2%)” for “analysis”; format: functional; conditions: time 4.5 hrs
Mus musculus [19] = experiment: Antiulcer activity in indomethacin-induced Balb/c mouse model of gastric ulcer assessed as cell injury in mucosa at 50 mg/kg, po pre-administered with compound for 30 mins followed by indomethacin administration and measured after 4 hrs by H&E staining based analysis (reference value: 70+/- 6.5 %); format: functional; conditions: time 4.5 hrs
Mus musculus [20] = experiment: Antiulcer activity in indomethacin-induced Balb/c mouse model of gastric ulcer assessed as inhibition of gastric mucosal apoptosis at 50 mg/kg, po pre-administered with compound for 30 mins followed by indomethacin administration and measured after 4 hrs by TUNEL assay; format: functional, organism-based; conditions: time 4.5 hrs
[21] = target: T2, Matrix metalloproteinase-9 (Homo sapiens, UniProt P14780); experiment: Inhibition of human MMP-9 at 500 uM incubated for 3 hrs by SDS-PAGE based gelatin zymography analysis
[22] = target: T2, Matrix metalloproteinase-9; experiment: Inhibition of human MMP-9 incubated for 3 hrs by SDS-PAGE based gelatin zymography analysis
Mus musculus [23] = experiment: Antioxidant activity in indomethacin-induced Balb/c mouse model of gastric ulcer assessed as lipid peroxidation by measuring TBARS activity in stomach at 50 mg/kg, po pre-administered with compound for 30 mins followed by indomethacin administration and measured after 4 hrs by TBARS assay (reference value: 1.40 +/- 0.03 nmol/mg); format: functional; conditions: time 4.5 hrs
Mus musculus [24] = experiment: In vivo inhibition of MMP-9 expression in indomethacin-induced Balb/c mouse model of gastric ulcer at 50 mg/kg, po pre-administered with compound for 30 mins followed by indomethacin administration and measured after 4 hrs by PI staining based immunofluorescence analysis; format: functional, organism-based; conditions: time 4.5 hrs
Mus musculus [25] = experiment: In vivo inhibition of MMP-9 activity in indomethacin-induced Balb/c mouse model of gastric ulcer at 50 mg/kg, po pre-administered with compound for 30 mins followed by indomethacin administration and measured after 4 hrs by SDS-PAGE based gelatin zymography method; format: functional, organism-based; conditions: time 4.5 hrs
Mus musculus [26] = experiment: Antiulcer activity in indomethacin-induced Balb/c mouse model of gastric ulcer assessed as intact epithelial layer in gastric tissue at 50 mg/kg, po pre-administered with compound for 30 mins followed by indomethacin administration and measured after 4 hrs by H&E staining based analysis; format: functional, organism-based; conditions: time 4.5 hrs

T2 sequence (P14780 whole entry): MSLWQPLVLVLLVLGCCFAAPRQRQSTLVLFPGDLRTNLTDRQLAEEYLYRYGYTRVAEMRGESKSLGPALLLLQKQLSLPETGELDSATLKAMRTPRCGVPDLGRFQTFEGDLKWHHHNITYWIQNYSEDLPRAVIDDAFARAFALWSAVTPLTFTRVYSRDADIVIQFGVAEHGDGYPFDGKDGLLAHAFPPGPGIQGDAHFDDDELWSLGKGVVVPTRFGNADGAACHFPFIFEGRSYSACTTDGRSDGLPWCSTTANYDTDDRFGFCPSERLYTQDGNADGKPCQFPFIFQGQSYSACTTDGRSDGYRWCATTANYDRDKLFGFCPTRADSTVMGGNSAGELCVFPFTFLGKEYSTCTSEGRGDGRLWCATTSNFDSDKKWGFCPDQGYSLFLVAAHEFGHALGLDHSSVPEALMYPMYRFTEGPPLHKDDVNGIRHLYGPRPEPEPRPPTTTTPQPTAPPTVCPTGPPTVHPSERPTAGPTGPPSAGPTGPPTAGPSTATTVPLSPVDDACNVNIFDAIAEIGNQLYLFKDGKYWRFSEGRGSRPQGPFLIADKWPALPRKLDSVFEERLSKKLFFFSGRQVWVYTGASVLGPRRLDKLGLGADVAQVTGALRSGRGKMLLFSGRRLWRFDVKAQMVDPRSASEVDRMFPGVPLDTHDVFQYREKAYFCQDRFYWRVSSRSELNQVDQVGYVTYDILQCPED
72 kDa type IV collagenase (Homo sapiens), sequence (P08253 110-660 limits assumed): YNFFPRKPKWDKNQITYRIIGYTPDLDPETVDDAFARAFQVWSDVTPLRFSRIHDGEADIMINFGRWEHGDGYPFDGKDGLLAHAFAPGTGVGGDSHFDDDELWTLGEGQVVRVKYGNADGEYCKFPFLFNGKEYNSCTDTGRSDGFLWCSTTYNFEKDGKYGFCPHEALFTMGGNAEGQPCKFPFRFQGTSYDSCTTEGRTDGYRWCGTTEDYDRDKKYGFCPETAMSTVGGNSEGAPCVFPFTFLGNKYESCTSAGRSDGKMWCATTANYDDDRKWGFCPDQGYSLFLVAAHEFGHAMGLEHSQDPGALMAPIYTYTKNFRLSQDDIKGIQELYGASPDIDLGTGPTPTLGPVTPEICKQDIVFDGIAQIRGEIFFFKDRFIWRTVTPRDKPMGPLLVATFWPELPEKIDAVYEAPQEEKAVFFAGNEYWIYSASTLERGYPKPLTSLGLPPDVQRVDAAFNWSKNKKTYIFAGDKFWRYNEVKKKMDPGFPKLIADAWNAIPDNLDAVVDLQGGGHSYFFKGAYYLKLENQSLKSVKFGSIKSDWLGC

COc1ccc2[nH]c([S+]([O-])Cc3ncc(C)c(OC)c3C)nc2c1 (stereo not given) [OMEPRAZOLE]
UI (Mus musculus [1]): 0.5 | inhibition in vivo at 12 mg/kg (Mus musculus [2]): 100%

COc1ccc2[nH]cc(-c3cc(-c4ccccc4)oc3-c3ccccc3)c2c1OC
UI (Mus musculus [3]): 13.5 | inhibition in vivo at 50 mg/kg (Mus musculus [4]): 74%

Oc1ccc2[nH]cc(-c3cc(-c4ccccc4)oc3-c3ccccc3)c2c1
UI (Mus musculus [3]): 11.5 | inhibition in vivo at 50 mg/kg (Mus musculus [4]): 78%

COc1cccc2c1c(-c1cc(-c3ccccc3)oc1-c1ccccc1)cn2C
UI (Mus musculus [3]): 23.25 | inhibition in vivo at 50 mg/kg (Mus musculus [4]): 56%

COc1cccc2[nH]cc(-c3cc(-c4ccccc4)oc3-c3ccccc3)c12
UI (Mus musculus [3]): 2.5 | inhibition in vivo at 50 mg/kg (Mus musculus [4]): 95% | Tmax [5]: 6 h | AUC [6]: 1270 µg·h/mL | Activity [7]: Non-Toxic | Activity [8]: Non-Toxic | Activity [9]: Non-Toxic | Activity [10]: Non-Toxic | Activity [11]: Non-Toxic | Activity [12]: Non-Toxic | IC50 [13]: > 100 µM | inhibition [14]: inactive | Activity (Mus musculus [15]): Active | Activity (Mus musculus [16]): 100% | Activity (Mus musculus [17]): ~90% | Activity (Mus musculus [18]): 92% | Activity (Mus musculus [19]): 12% | Activity (Mus musculus [20]): Active | inhibition [21]: Active | IC50 [22]: ~50 µM | Activity (Mus musculus [23]): 0.47 nmol/mg | inhibition (Mus musculus [24]): Active | inhibition (Mus musculus [25]): Active | Activity (Mus musculus [26]): Active

COc1ccc2[nH]cc(-c3cc(-c4ccccc4)oc3-c3ccccc3)c2c1
UI (Mus musculus [3]): 9 | inhibition in vivo at 50 mg/kg (Mus musculus [4]): 83%

c1ccc(-c2cc(-c3c(-c4ccccc4)[nH]c4ccccc34)c(-c3ccccc3)o2)cc1
UI (Mus musculus [3]): 18.25 | inhibition in vivo at 50 mg/kg (Mus musculus [4]): 65%

Oc1ccccc1-c1[nH]c2ccccc2c1-c1cc(-c2ccccc2)oc1-c1ccccc1
UI (Mus musculus [3]): 14.5 | inhibition in vivo at 50 mg/kg (Mus musculus [4]): 72%

c1ccc(-c2cc(-c3c[nH]c4ccccc34)c(-c3ccccc3)o2)cc1
UI (Mus musculus [3]): 20.2 | inhibition in vivo at 50 mg/kg (Mus musculus [4]): 62%
